Test: xn = mol fraction of the nth substance listed
Conditions: 100 kPa

CCCO + C=CC[n+]1ccn(C)c1.O=S(=O)([N-]S(=O)(=O)C(F)(F)F)C(F)(F)F
speed of sound (298.15 K, x2 = 0): 1206.5 m/s | speed of sound (338.15 K, x2 = 0): 1071.5 m/s | speed of sound (343.15 K, x2 = 0): 1054.5 m/s

C=CC[n+]1ccn(C)c1.O=S(=O)([N-]S(=O)(=O)C(F)(F)F)C(F)(F)F + CCCO
speed of sound (298.15 K, x1 = 0.2987): 1189.5 m/s | speed of sound (308.15 K, x1 = 0.8024): 1207.5 m/s | speed of sound (313.15 K, x1 = 0.5004): 1173.5 m/s | speed of sound (323.15 K, x1 = 0.2987): 1127.5 m/s

CC[S+](CC)CC.O=S(=O)([N-]S(=O)(=O)C(F)(F)F)C(F)(F)F + CCCO
speed of sound (293.15 K, x1 = 0.0493): 1205.5 m/s | speed of sound (308.15 K, x1 = 0.0493): 1159.5 m/s | speed of sound (323.15 K, x1 = 0.903): 1181.5 m/s

CCCO + CC[S+](CC)CC.O=S(=O)([N-]S(=O)(=O)C(F)(F)F)C(F)(F)F
speed of sound (338.15 K, x2 = 0): 1071.5 m/s | speed of sound (343.15 K, x2 = 0): 1054.5 m/s

Source: a compilation of properties of binary mixtures (doi:10.1021/je700428f)
